Where two headings read alike, the source gives them in different places.

Data set [1] deals with human coronavirus strain 229E (HCoV-229E). The format is cell-based. To be noted: FGF-2 1 ng/mL to 0.003 ng/mL, XTT. For orientation: Formazan colour is commonly taken as a measure of viable cells.
Data set [2] concerns SARS-CoV-2 (strain USA-WA1/2020). The format is in vivo, Golden Syrian hamsters. The following applies: lungs on D6.
A further data set has as its system HAP1 cells. To be noted: increasing concentrations of FGF-2 up to 1 ng/mL, XTT.

In the case of “FGF-2: Recombinant human FGF-2 (SEQ ID NO. 1, 18 kDa low molecular weight isoform); Sigma-Aldrich F0291 in Example 1, PeproTech 100-18B in Example 2”, the “EC50 (dose-dependent enhancement of cell survival)” value in data set [1] is reported as 0.08 ng/mL. In addition, the “reduction in viral load compared to vehicle-treated animals” value in data set [2] (20 μg FGF-2 intravenous on D-1, D0, D1, D2) is 51%; in data set [2] (50 μg FGF-2 intravenous on D-1, D0, D1, D2), 73%. The toxicity result in the data set with HAP1 cells is on record as “without toxicity”.
